US20130123355A1, “Fatty acids and metal ions compositions and uses thereof” (priority 2011, published 2013)

Tests used:
[1] = Li levels in cerebrospinal fluid of rats fed Li compositions; format: in vivo, Sprague-Dawley rats; settings: oral gavage, about 20 mg elemental Li per Kg per day for 3 weeks, compared with lithium carbonate
Method: Sprague-Dawley rats are fed various […] compositions by oral gavage so as to provide about 20 mg of elemental Li per Kg per day for 3 weeks. The lithium compositions include Li-DHA, Li-DHA-LysoPC and Li-EPA. Control rats were administered equivalent molar amount of Lithium carbonate. Cerebrospinal fluid is collected at the end of the treatment, and lithium is measured by atomic absorption spectroscopy.

[2] = system: Sprague-Dawley rats; assay: Forced Swim Test; format: in vivo; settings: diet, about 15.5 mg/Kg/day elemental lithium, compared with the fatty acid alone or lithium carbonate
Text: Sprague-Dawley rats are fed diet supplemented with Mg-DHA, Mg Citrate, or DHA. […] Various established parameters of antidepressant activity including reduced immobility time, increased swimming, and increased climbing behavior are quantitated to assess the antidepressant activity.
Sprague-Dawley rats are fed diet supplemented with Mg-DHA-LysoPC, Mg Citrate, or DHA-lysoPC. […] Various established parameters of antidepressant activity including reduced immobility time, increased swimming, and increased climbing behavior are quantitated to assess the antidepressant activity.
Sprague-Dawley rats are fed diet supplemented with Mg-EPA, Mg Citrate, or EPA. […] Various established parameters of antidepressant activity including reduced immobility time, increased swimming, and increased climbing behavior are quantitated to assess the antidepressant activity.
(§1) Sprague-Dawley rats are fed diet supplemented with Zn-DHA, Zinc gluconate, or DHA. On Zn-DHA or Zinc gluconate supplemented diet, rats consume about 1 mg/kg body weight/day of elemental zinc, on a feeding schedule so as to maintain 85% of its free-feeding weight. […] Various established parameters of antidepressant activity including reduced immobility time, increased swimming, and increased climbing behavior are quantitated to assess the antidepressant activity.
as §1, with “Zn-DHA-lysoPC, zinc” for “Zn-DHA, Zinc”, “Zn-DHA-lysoPC” for “Zn-DHA”, “zinc” for “Zinc”
as §1, with “Zn-EPA, zinc” for “Zn-DHA, Zinc”, “EPA.” for “DHA.”, “Zn-EPA” for “Zn-DHA”, “zinc” for “Zinc”
Sprague-Dawley rats are fed diet supplemented with Li-DHA, lithium carbonate, or DHA. […] Various established parameters of antidepressant activity including reduced immobility time, increased swimming, and increased climbing behavior are quantitated to assess the antidepressant activity.
Sprague-Dawley rats are fed diet supplemented with Li-DHA-lysoPC, lithium carbonate, or DHA. […] Various established parameters of antidepressant activity including reduced immobility time, increased swimming, and increased climbing behavior are quantitated to assess the antidepressant activity.
Sprague-Dawley rats are fed diet supplemented with Li-EPA, lithium carbonate, or EPA. […] Various established parameters of antidepressant activity including reduced immobility time, increased swimming, and increased climbing behavior are quantitated to assess the antidepressant activity.

[3] = system: Patients presenting symptoms of depression; assay: Hamilton Depression Rating scale and Beck Depression Inventory in depression; format: in vivo, human; settings: 113 mg elemental Li 3 to 4 times a day for two weeks, with standard of care, compared with lithium carbonate or the fatty acid alone
Method: Patients presenting symptoms of depression, in addition to being provided standard of care for depression, are prescribed Mg-DHA or Mg Citrate capsules formulated to provide 150 mg of elemental magnesium, or DHA capsules for two weeks when recovery from depression is assessed.
Patients presenting symptoms of depression, in addition to being provided standard of care for depression, are prescribed Mg-DHA-LysoPC or Mg Citrate capsules formulated to provide 150 mg of elemental magnesium, or DHA-LysoPC capsules for two weeks when recovery from depression is assessed.
Patients presenting symptoms of depression, in addition to being provided standard of care for depression, are prescribed Mg-EPA or Mg Citrate capsules formulated to provide 150 mg of elemental magnesium, or EPA capsules for two weeks when recovery from depression is assessed.
(§2) Patients presenting symptoms of depression, in addition to being provided standard of care for depression, are prescribed Zn-DHA or zinc gluconate capsules formulated to provide a daily dosage of 30 mg of elemental zinc, or DHA capsules for two weeks when recovery from depression is assessed.
as §2, with “Zn-DHA-LysoPC” for “Zn-DHA”, “DHA-LysoPC” for “DHA”
Patients presenting symptoms of depression, in addition to being provided standard of care for depression, are prescribed Zn-EPA or zinc gluconate capsules that provide a daily dosage of 30 mg of elemental Zn, or EPA capsules for two weeks when recovery from depression is assessed.

[4] = system: C57BL/6J mice; assay: d-amphetamine induced hyperlocomotion, supplemented diet; format: in vivo; settings: about 15.5 mg/Kg/day elemental lithium, 0.5 mg/Kg d-amphetamine on days 0, 7, 14, 21, compared with the fatty acid alone or lithium chloride
Method: C57BL/6J mice are fed diet supplemented with Li-DHA, lithium chloride, or DHA. On Li-DHA or lithium chloride supplemented diet, mice consume, on an average, about 15.5 mg/Kg/day of elemental lithium, on a feeding schedule so as to maintain 85% of its free-feeding weight. […] On 0, 7, 14, and 21 days of starting the supplement diet, mice are injected with 0.5 mg/Kg d-amphetamine and observed for hyperlocomotion using automated video recording device.
C57BL/6J mice are fed diet supplemented with Li-DHA-lysoPC, lithium chloride, or DHA-lysoPC. On Li-DHA-lysoPC or lithium chloride supplemented diet, mice consume, on an average, about 15.5 mg/Kg/day of elemental lithium, on a feeding schedule so as to maintain 85% of its free-feeding weight. […] On 0, 7, 14, and 21 days of starting the supplement diet, mice are injected with 0.5 mg/Kg d-amphetamine and observed for hyperlocomotion using automated video recording device.
C57BL/6J mice are fed diet supplemented with Li-EPA, lithium chloride, or EPA. On Li-EPA or lithium chloride supplemented diet, mice consume, on an average, about 15.5 mg/Kg/day of elemental lithium, on a feeding schedule so as to maintain 85% of its free-feeding weight. […] On 0, 7, 14, and 21 days of starting the supplement diet, mice are injected with 0.5 mg/Kg d-amphetamine and observed for hyperlocomotion using automated video recording device.

[5] = system: C57BL/6J mice; assay: d-amphetamine induced hyperlocomotion, acute injection; format: in vivo; settings: injected 15.5 mg/Kg elemental lithium fifteen minutes after d-amphetamine (0.5 mg/Kg), observed 120 minutes, compared with the fatty acid alone or lithium chloride
Method: C57BL/6J mice are injected with d-amphetamine (0.5 mg/Kg) and increased locomotion is measured. Fifteen minutes later, Li-DHA, or lithium chloride dose is injected to deliver 15.5 mg/Kg elemental lithium. […] Subsequently, the mice are observed for hyperlocomotion for the next 120 minutes using automated video recording device.
C57BL/6J mice are injected with d-amphetamine (0.5 mg/Kg) and increased locomotion is measured. Fifteen minutes later, Li-DHA-lysoPC, or lithium chloride dose is injected to deliver 15.5 mg/Kg elemental lithium. […] Subsequently, the mice are observed for hyperlocomotion for the next 120 minutes using automated video recording device.
C57BL/6J mice are injected with d-amphetamine (0.5 mg/Kg) and increased locomotion is measured. Fifteen minutes later, Li-EPA, or lithium chloride dose is injected to deliver 15.5 mg/Kg elemental lithium. […] Subsequently, the mice are observed for hyperlocomotion for the next 120 minutes using automated video recording device.

[6] = system: Patients presenting symptoms of bipolar disorder; assay: Hamilton Depression Rating scale, Beck Depression Inventory and Young Mania Rating Scale in bipolar disorder; format: in vivo, human; settings: 113 mg elemental Li 3 to 4 times a day for two weeks, with standard of care, compared with lithium carbonate or the fatty acid alone
[7] = intravenous infusion for 5 days; cited from earlier work

| Structure (SMILES) | CSF levels of lithium [1] | immobility time [2] | swimming and climbing behavior [2] | Hamilton Depression Rating scale and Beck Depression Inventory scores [3] | induced hyperlocomotion [4] | induced hyperlocomotion [5] | Hamilton Depression Rating scale, Beck Depression Inventory and Young Mania Rating Scale scores [6] | Mg levels in the brain [7] | increase of blood levels of magnesium [7] |
| --- | --- | --- | --- | --- | --- | --- | --- | --- | --- |
| CC/C=C\C/C=C\C/C=C\C/C=C\C/C=C\C/C=C\CCC(=O)[O-].[Li+] [Li-DHA] | higher | reduction | significant increase | statistically significant improvement | lower levels | lower levels | statistically significant improvement |  |  |
| CC/C=C\C/C=C\C/C=C\C/C=C\C/C=C\CCCC(=O)[O-].[Li+] [Li-EPA] | higher | reduction | significant increase | statistically significant improvement | lower levels | lower levels | statistically significant improvement |  |  |
| O=S(=O)([O-])[O-].[Mg+2] [magnesium sulfate] |  |  |  |  |  |  |  | failed to increase | 3 fold |
